The supplement of paper PMC4862054

Tests used:
Details in all cases: incubation time: 72 h
CAL-120 = experiment: normalised viability (% of control), CellTiter-Blue; higher = more viable cells (about 100 = DMSO control)
Description: (§1)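 DSRT, CellTiter-Blue viability, 72 h incubation. Signal is normalised to DMSO and benzethonium chloride controls. Value is the normalised response at dose 3.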

CAL-148 [1] = experiment: as above
Description: as §1

CAL-51 [2] = experiment: as above
Description: as §1

CAL-85-1 [3] = experiment: as above
Description: as §1

HCC1599 [4] = experiment: as above
Description: as §1

HCC1937 = experiment: as above
Description: as §1

HDQ-P1 [5] = experiment: as above
Description: as §1

Hs578T [6] = experiment: as above
Description: as §1

MDA-MB-231 [7] = experiment: as above
Description: as §1

MDA-MB-436 [8] = experiment: as above
Description: as §1

MDA-MB-468 [9] = experiment: as above
Description: as §1

SK-BR-3 [10] = experiment: as above
Description: as §1

BT-474 = experiment: drug sensitivity score (DSS), CellTiter-Blue viability (DSS (AUC-based score)); higher = stronger viability inhibition; extreme values may be limits of the assay
Description: (§2)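 DSRT with the CellTiter-Blue (resazurin reduction) viability readout, fluorescence 560/590 nm, 72 h incubation. Plates were normalised to DMSO and benzethonium chloride controls. DSS is computed from the area under the fitted dose-response curve (5 or 9 concentrations).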

BT-549 = experiment: as above
Description: as §2

CAL-148 [11] = experiment: as above
Description: as §2

CAL-51 [12] = experiment: as above
Description: as §2

CAL-85-1 [13] = experiment: as above
Description: as §2

DU-4475 = experiment: as above
Description: as §2

HCC1143 = experiment: as above
Description: as §2

HCC1599 [14] = experiment: as above
Description: as §2

HDQ-P1 [15] = experiment: as above
Description: as §2

Hs578T [16] = experiment: as above
Description: as §2

MDA-MB-231 [17] = experiment: as above
Description: as §2

MDA-MB-436 [18] = experiment: as above
Description: as §2

MDA-MB-453 = experiment: as above
Description: as §2

MDA-MB-468 [19] = experiment: as above
Description: as §2

MFM-223 = experiment: as above
Description: as §2

SK-BR-3 [20] = experiment: as above
Description: as §2

SMILES	normalised viability (CAL-120; 100 nM) [%]	normalised viability (CAL-148 [1]; 10 nM) [%]	normalised viability (CAL-51 [2]; 10 nM) [%]	normalised viability (CAL-85-1 [3]; 10 nM) [%]	drug sensitivity score (BT-474)	drug sensitivity score (BT-549)	drug sensitivity score (CAL-148 [11])	drug sensitivity score (CAL-51 [12])	drug sensitivity score (CAL-85-1 [13])	drug sensitivity score (DU-4475)	drug sensitivity score (HCC1143)	drug sensitivity score (HCC1599 [14])	drug sensitivity score (HDQ-P1 [15])	drug sensitivity score (Hs578T [16])	drug sensitivity score (MDA-MB-231 [17])	drug sensitivity score (MDA-MB-436 [18])	drug sensitivity score (MDA-MB-453)	drug sensitivity score (MDA-MB-468 [19])	drug sensitivity score (MFM-223)	drug sensitivity score (SK-BR-3 [20])	further results
COc1ccc(-c2cc3c(C)nc(N)nc3n([C@H]3CC[C@H](OCCO)CC3)c2=O)cn1	74.9	98.1	93.3	95.3	19.6	19.1	18.3	21.2	16.7	13.7	13.8	16.2	22.5	20.1	19.9	17.9	24.6	17.2	19.1	24.9	normalised viability (HCC1599 [4]; 100 nM): 73.6%; normalised viability (HCC1937; 100 nM): 65.8%; normalised viability (HDQ-P1 [5]; 10 nM): 82%; normalised viability (Hs578T [6]; 100 nM): 60.5%; normalised viability (MDA-MB-231 [7]; 100 nM): 63.2%; normalised viability (MDA-MB-436 [8]; 100 nM): 80.6%; normalised viability (MDA-MB-468 [9]; 100 nM): 77.3%; normalised viability (SK-BR-3 [10]; 100 nM): 32.9%
Cc1cccc(-c2nn3c(c2-c2ccnc4ccc(C(N)=O)cc24)CCC3)n1	–	–	–	–	0	0	0	0	0	0	0	0	0	0	0	0	0	0	0	0	normalised viability (CAL-120; 10 nM): 95.1%; normalised viability (CAL-148 [1]; 1 nM): 99%; normalised viability (CAL-51 [2]; 1 nM): 96.1%; normalised viability (CAL-85-1 [3]; 1 nM): 97.7%; normalised viability (HCC1599 [4]; 10 nM): 101%; normalised viability (HCC1937; 10 nM): 122%; normalised viability (HDQ-P1 [5]; 1 nM): 106%; normalised viability (Hs578T [6]; 10 nM): 96.2%; normalised viability (MDA-MB-231 [7]; 10 nM): 99%; normalised viability (MDA-MB-436 [8]; 10 nM): 127%; normalised viability (MDA-MB-468 [9]; 10 nM): 110%; normalised viability (SK-BR-3 [10]; 10 nM): 98.9%
Cn1cc(CNCC2CCN(c3ncc(C(=O)NO)cn3)CC2)c2ccccc21	–	–	–	–	19.9	8.2	22.6	13.7	19.1	21.1	18.9	16.5	16.5	13.1	15	5.46	27.8	14.1	14.9	25.8	normalised viability (CAL-120; 10 nM): 58.3%; normalised viability (CAL-148 [1]; 1 nM): 98.3%; normalised viability (CAL-51 [2]; 1 nM): 102%; normalised viability (CAL-85-1 [3]; 1 nM): 90.7%; normalised viability (HCC1599 [4]; 10 nM): 73.7%; normalised viability (HCC1937; 10 nM): 76.4%; normalised viability (HDQ-P1 [5]; 1 nM): 100%; normalised viability (Hs578T [6]; 10 nM): 86.8%; normalised viability (MDA-MB-231 [7]; 10 nM): 99.5%; normalised viability (MDA-MB-436 [8]; 10 nM): 77.9%; normalised viability (MDA-MB-468 [9]; 10 nM): 78.3%; normalised viability (SK-BR-3 [10]; 10 nM): 35.8%
O=C(NC[C@H](O)CO)c1ccncc1Nc1ccc(I)cc1F	85.1	80.3	99.2	90.6	0	0	3.49	3.9	6.9	35.2	13.8	4.05	10.3	0	21.9	0	4.94	0	0	0	normalised viability (HCC1599 [4]; 100 nM): 101%; normalised viability (HCC1937; 100 nM): 88.7%; normalised viability (HDQ-P1 [5]; 10 nM): 97.9%; normalised viability (Hs578T [6]; 100 nM): 79.8%; normalised viability (MDA-MB-231 [7]; 100 nM): 44.8%; normalised viability (MDA-MB-436 [8]; 100 nM): 114%; normalised viability (MDA-MB-468 [9]; 100 nM): 87.3%; normalised viability (SK-BR-3 [10]; 100 nM): 78.1%
Nc1nc(=O)c2c([nH]1)NCC(CNc1ccc(C(=O)N[C@@H](CCC(=O)O)C(=O)O)cc1)N2C=O (mixture of isomers) [Folinic acid]	–	–	–	–	0	0	0	0	0	0	0	0	0	0	0	0	0	0	0	0	normalised viability (CAL-120; 9.9 nM): 111%; normalised viability (CAL-148 [1]; 0.99 nM): 88.3%; normalised viability (CAL-51 [2]; 0.99 nM): 98.4%; normalised viability (CAL-85-1 [3]; 0.99 nM): 106%; normalised viability (HCC1599 [4]; 9.9 nM): 108%; normalised viability (HCC1937; 9.9 nM): 110%; normalised viability (HDQ-P1 [5]; 0.99 nM): 140%; normalised viability (Hs578T [6]; 9.9 nM): 96%; normalised viability (MDA-MB-231 [7]; 9.9 nM): 103%; normalised viability (MDA-MB-436 [8]; 9.9 nM): 128%; normalised viability (MDA-MB-468 [9]; 9.9 nM): 119%; normalised viability (SK-BR-3 [10]; 9.9 nM): 104%
O=C(Nc1c[nH]nc1-c1nc2ccc(CN3CCOCC3)cc2[nH]1)NC1CC1 [AT9283]	57.3	82.7	100	85.7	8.49	12.2	7.72	14	10	22.7	9.48	7.51	12.4	16.4	13.2	8.22	17.4	22.4	12.4	17.5	normalised viability (HCC1599 [4]; 100 nM): 94.8%; normalised viability (HCC1937; 100 nM): 60.9%; normalised viability (HDQ-P1 [5]; 10 nM): 112%; normalised viability (Hs578T [6]; 100 nM): 64.4%; normalised viability (MDA-MB-231 [7]; 100 nM): 75.2%; normalised viability (MDA-MB-436 [8]; 100 nM): 99%; normalised viability (MDA-MB-468 [9]; 100 nM): 29.4%; normalised viability (SK-BR-3 [10]; 100 nM): 53%
